From ChEMBL document CHEMBL1140642, “Human serum albumin binding assay based on displacement of a non selective fluorescent inhibitor” (Bioorg Med Chem Lett, 2007) come the findings set out here.

Data set [1] has as its target T1, Albumin (Homo sapiens, UniProt P02768). The data set is described as follows: Displacement of [C13]-methyl oleic acid from ibuprofen site of human serum albumin by NMR.
Data set [2] addresses T1, Albumin. In words: Displacement of [C13]-methyl oleic acid from warfarin site of human serum albumin by NMR.

T1 sequence (P02768 whole entry): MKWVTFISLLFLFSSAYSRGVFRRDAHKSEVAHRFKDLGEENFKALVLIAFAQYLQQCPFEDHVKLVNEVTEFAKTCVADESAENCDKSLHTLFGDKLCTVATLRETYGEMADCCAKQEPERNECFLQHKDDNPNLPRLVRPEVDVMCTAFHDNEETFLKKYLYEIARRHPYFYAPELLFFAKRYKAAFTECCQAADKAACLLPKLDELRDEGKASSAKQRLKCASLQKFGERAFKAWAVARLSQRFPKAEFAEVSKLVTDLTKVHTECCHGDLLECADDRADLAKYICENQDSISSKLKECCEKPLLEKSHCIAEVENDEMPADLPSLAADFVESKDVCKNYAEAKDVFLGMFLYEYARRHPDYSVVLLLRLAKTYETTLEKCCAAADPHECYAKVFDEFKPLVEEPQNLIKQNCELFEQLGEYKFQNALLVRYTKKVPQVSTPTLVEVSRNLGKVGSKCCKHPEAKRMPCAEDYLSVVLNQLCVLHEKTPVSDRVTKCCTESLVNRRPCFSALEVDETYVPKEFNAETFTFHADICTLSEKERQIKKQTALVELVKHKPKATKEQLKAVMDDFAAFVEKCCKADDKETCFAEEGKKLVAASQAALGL

Turning to `Cn1c(/C=C/c2ccc(C#N)cc2C(=O)O)cc2ccccc21`, the result at Albumin [1] and on Albumin [2] was Active.
